Data on 17 substances can be found in paper PMC5701947, “β1-Adrenergic Receptor Contains Multiple IA^k and IE^k Binding Epitopes That Induce T Cell Responses with Varying Degrees of Autoimmune Myocarditis in A/J Mice” (Frontiers in Immunology, 2017).

Entries after “also recorded” stand apart in the source; their conditions may differ.

Test [1] deals with rabbits, rats, and mice. The following applies: cited from earlier work. The text has this:
While, an assumption made in these studies that a single epitope of β1AR can act as an immunogen in various species despite the major histocompatibility complex (MHC) alleles to be different was found valid, identification of other potential immunodominant epitopes, if any, was not explored. Lik ... || In this report, we describe identification of T cell epitopes of β1AR in A/J mice that are highly susceptible to lymphocytic myocarditis induced by various cardiac antigens namely, Myhc ([28]), cardiac troponin I ([47]), ANT ([26]), and BCKD kinase ([30]). Importance of β1AR in the cardiac disease has long been investigated in that patients with myocarditis/DCM, in particular, IDCM show β1AR-reactive antibodies.

Test [2] concerns T cells (lymph node cells/splenocytes from immunized animals). Briefly: T cell proliferation assay ([3H]-thymidine). It counts as cell-based, A/J mice. The following applies: for T cell responses: fold vs medium control; for T cell responses (in words): proliferation, 0–100 µg/ml, 2 days + 16 h [3H]-thymidine, cpm. The method, then:
At termination, lymph nodes (maxillary, mandibular, axillary, inguinal, and popliteal) and spleens were harvested from immunized animals to prepare single cell suspensions. Similarly, splenocytes were prepared from naive animals. After lysing the erythrocytes and washing, cell pellets were suspended in RPMI medium containing 10% fetal bovine serum, 1 mM sodium pyruvate, 4 mM L-glutamine, 1 × each of non-essential amino acids and vitamin mixture, and 100 U/ml penicillin–streptomycin (Lonza, Walkersville, MD, USA; hereafter called growth medium). In some experiments, CD4 T cells and CD8 T cells were enriched to a purity of ~95% by negative selection based on magnetic separation using IMAG (BD Biosciences, San Jose, CA, USA) ([31]). To stimulate CD4 and CD8 T cells, syngeneic naive irradiated splenocytes loaded with peptides were used as antigen-presenting cells at a ratio of 1:1. Cells were stimulated at a density of ~5 × 10^6 cells/ml in triplicates with or without the immunizing peptides (0–100 µg/ml) in growth medium. RNase 43–56 or HEL 46–61 were used as irrelevant controls. After 2 days, cells were pulsed with tritiated ^3[H]-thymidine (1 μCi/well; MP Biomedicals, Santa Ana, CA, USA), and 16 h later, proliferative responses were measured as counts per minute (cpm) using a Wallac liquid scintillation counter (Perkin Elmer, Waltham, MA, USA) ([26], [28], [30]).

For test [3], the system named is A/J mice (hearts). Briefly: Induction of myocarditis by active immunization with peptides (histology). It counts as in vivo. The note with it: for Myocarditis incidence / Myocarditis incidence (animals with disease/total) / Inflammatory foci: individual non-acetylated peptide, 100 µg per animal; for Myocarditis incidence / Myocarditis incidence (animals with disease/total): CFA/PT, days 0 and 7, day 21; for Inflammatory foci: mean ± SEM of myocarditic animals.

The mark [4] stands for this setting: 10 μg/ml, animals immunized with pool IV.
Setting [5] is: 100 μg/ml, animals immunized with pool IV.
Where [6] appears, read: 10 μg/ml, animals immunized with pool VII.
The mark [7] stands for this setting: 100 μg/ml, animals immunized with pool VII.
The mark [8] stands for this setting: 10 μg/ml, animals immunized with pool VIII.
Setting [9] is: 100 μg/ml, animals immunized with pool VIII.
The mark [10] stands for this setting: 10 μg/ml, animals immunized with pool IX.
The mark [11] stands for this setting: 100 μg/ml, animals immunized with pool IX.

Consider “HWWRAESDEARRCYNDPKCCDFVTNR [β1AR 197–222]”, for which the “Cardiac abnormalities in Balb/c mice (in words)” value in test [1] (Balb/c mice) is listed as “cardiac abnormalities could be detected in Balb/c mice only at 25 weeks but not at 14 weeks postimmunization”. Besides, the “Antibody induction in rodent species (in words)” value in test [1] is “shown to induce antibodies in various rodent species”. Moreover, the “Cardiomyopathy on prolonged immunization (in words)” value in test [1] (monthly/biweekly immunizations for 6–18 months) is “developed cardiac dysfunctions suggestive of DCM, with minimal or no heart infiltrates; also recorded: can develop features of cardiomyopathy during the course of ~1 year with little or no myocarditis”. In test [1] (rats, prolonged immunization), the “Cardiomyopathic changes in rats (in words)” value is “early cardiomyopathic changes at 1 year, but with no necrosis or fibrosis including changes in heart to body weight ratios”.
In test [2] (setting [4]), “NDPKCCDFVTNRAYAIASSV [β1AR 211-230, 20-mer of mouse β1AR peptide library]” came in with a T cell responses of 3.15 fold. The substance further showed a T cell responses in test [2] (setting [5]) of 3.27 fold. Besides, the “Disease severity (in words)” value in test [3] (individual immunization, non-acetylated peptides) was “mild disease”. Further, in test [3], the Myocarditis incidence was determined as 40%, the “Myocarditis incidence (animals with disease/total)” value is recorded as 2/5 and the Inflammatory foci worked out at 2.0 ± 1.0.
As for “β1AR 191-210: 20-mer of mouse β1AR peptide library (FLPILMHWWRAESDEARRCY; UniProt P34971 191-210, looked up, fragment)”, the T cell responses in test [2] (setting [4]) came out at 1.26 fold. Besides, in test [2] (setting [5]), the T cell responses was 1.63 fold. Further, in test [3], the Myocarditis incidence came to 0%, the “Myocarditis incidence (animals with disease/total)” value was 0/5 and the Inflammatory foci came to 0.
Regarding “β1AR 201-220: 20-mer of mouse β1AR peptide library (AESDEARRCYNDPKCCDFVT; UniProt P34971 201-220, looked up, fragment)”, in test [2] (setting [4]), the T cell responses is recorded as 1.08 fold. Also, the T cell responses in test [2] (setting [5]) was 1.37 fold. For the same substance, in test [3], the Myocarditis incidence was determined as 0%, the “Myocarditis incidence (animals with disease/total)” value is recorded as 0/5 and the Inflammatory foci was 0.
For “β1AR 331-350: 20-mer of mouse β1AR peptide library (LANVVKAFHRDLVPDRLFVF; UniProt P34971 331-350, looked up, fragment)”, the T cell responses in test [2] (setting [6]) worked out at 1.05 fold; in test [2] (setting [7]) it was 1.49 fold.
“β1AR 341-360: 20-mer of mouse β1AR peptide library (DLVPDRLFVFFNWLGYANSA; UniProt P34971 341-360, looked up, fragment)”: the T cell responses in test [2] (setting [6]) amounted to 1.02 fold; in test [2] (setting [7]) it was 1.47 fold.
For “β1AR 351-370: 20-mer of mouse β1AR peptide library (FNWLGYANSAFNPIIYCRSP; UniProt P34971 351-370, looked up, fragment)”, in that order: 1.86 fold and 1.82 fold.
Take “β1AR 361-380: 20-mer of mouse β1AR peptide library (FNPIIYCRSPDFRKAFQRLL; UniProt P34971 361-380, looked up, fragment)”: the T cell responses in test [2] (setting [6]) is reported as 2.06 fold; in test [2] (setting [7]), 1.82 fold.
For the substance “β1AR 371-390: 20-mer of mouse β1AR peptide library (DFRKAFQRLLCCARRAACRR; UniProt P34971 371-390, looked up, fragment)”, the T cell responses in test [2] (setting [8]) is listed as 1.14 fold; in test [2] (setting [9]) it was 0.60 fold.
With “β1AR 381-400: 20-mer of mouse β1AR peptide library (CCARRAACRRRAAHGDRPRA; UniProt P34971 381-400, looked up, fragment)”, the T cell responses in test [2] (setting [8]) is reported as 1.10 fold. The substance also came in with a T cell responses in test [2] (setting [9]) of 1.45 fold. Moreover, the “T cell responses (in words)” value in test [2] is recorded as “did not show T cell responses”. In test [3], the Myocarditis incidence was found to be 0%, the “Myocarditis incidence (animals with disease/total)” value was 0/5 and the Inflammatory foci worked out at 0.
As to “β1AR 391-410: 20-mer of mouse β1AR peptide library (RAAHGDRPRASGCLARAGPP; UniProt P34971 391-410, looked up, fragment)”, the T cell responses in test [2] (setting [8]) was 1.03 fold. Further, the T cell responses in test [2] (setting [9]) came to 1.18 fold. Also, in test [2], the “T cell responses (in words)” value was “did not show T cell responses”. Besides, in test [3], the Myocarditis incidence was determined as 0%, the “Myocarditis incidence (animals with disease/total)” value is on record as 0/5 and the Inflammatory foci is recorded as 0.
Turning to “β1AR 401-420: 20-mer of mouse β1AR peptide library (SGCLARAGPPPSPGAPSDDD; UniProt P34971 401-420, looked up, fragment)”, the figures for the T cell responses in test [2] (setting [8]) and in test [2] (setting [9]) were 0.90 fold and 0.88 fold, respectively.
For “β1AR 411-430: 20-mer of mouse β1AR peptide library (PSPGAPSDDDDDDAGTTPPA; UniProt P34971 411-430, looked up, fragment)”, in that order: 0.93 fold and 0.94 fold.
Turning to “β1AR 421-440: 20-mer of mouse β1AR peptide library (DDDAGTTPPARLLEPWTGCN; UniProt P34971 421-440, looked up, fragment)”, the figures for the T cell responses in test [2] (setting [10]) and in test [2] (setting [11]) were 1.12 fold and 1.21 fold, respectively.
The corresponding values for “β1AR 431-450: 20-mer of mouse β1AR peptide library (RLLEPWTGCNGGTTTVDSDS; UniProt P34971 431-450, looked up, fragment)” are 1.14 fold and 1.18 fold.
For “β1AR 441-460: 20-mer of mouse β1AR peptide library (GGTTTVDSDSSLDEPGRQGF; UniProt P34971 441-460, looked up, fragment)”, the T cell responses is listed as 0.79 fold in test [2] (setting [10]) and 1.01 fold in test [2] (setting [11]).
On to “β1AR 451-466: 16-mer of mouse β1AR peptide library (SLDEPGRQGFSSESKV; UniProt P34971 451-466, looked up, fragment)”, for which the values for the T cell responses in test [2] (setting [10]) and in test [2] (setting [11]) were 0.95 fold and 1.16 fold, respectively.
